Test results: ChEMBL document CHEMBL1129361, “Modulators of leukotriene biosynthesis and receptor activation” (J Med Chem, 1996)

Key:
[1] = molecular target: T1, Leukotriene B4 receptor 1 (Homo sapiens, UniProt Q15722); experiment: Compound was tested for inhibitory activity against human neutrophil LTB4 receptor binding
Homo sapiens [2] = species: Homo sapiens; experiment: Compound was tested in vitro inhibitory activity against human neutrophil CD11b/CD18.; type: functional
Cavia porcellus [3] = experiment: Compound was tested in vivo inhibitory activity against LTB4 induced bronchoconstriction (orally); type: functional; details: po
Homo sapiens [4] = species: Homo sapiens; experiment: Compound was tested in vitro inhibitory activity against LTB4 induced Ca mobilization; type: functional
Cavia porcellus [5] = experiment: Compound was tested in vivo inhibitory activity against LTB4 induced bronchoconstriction (intravenous); type: functional
RBL-1 [6] = experiment: Compound was tested for in vitro inhibition against broken RBL-1.; type: functional; details: Rattus norvegicus
Homo sapiens [7] = species: Homo sapiens; experiment: Compound was tested for in vitro inhibition against human PMNL.; type: functional
[8] = phase 1 oral half life at a dose 200 mg. (200 mg provided >95% inhibition of ex vivo stimulated LTB4 in blood up to 18 hour post dose); type: organism-based; details: human
Homo sapiens [9] = species: Homo sapiens; experiment: Compound was tested for in vitro inhibition against human whole blood.; type: functional
Cavia porcellus [10] = experiment: Compound was tested for in vivo inhibition against gp antigen bronchospasm.; type: functional; details: Bronchiole
Rattus norvegicus [11] = experiment: Compound was tested for in vivo inhibition against rat peritoneal anaphylaxis.; type: functional
[12] = molecular target: T2, Cysteinyl leukotriene receptor (Homo sapiens, UniProt Q9Y271+Q9NS75); experiment: Binding affinity against Cysteinyl leukotriene D4 receptor; type: protein assay
T2 sequence (Q9Y271 whole entry): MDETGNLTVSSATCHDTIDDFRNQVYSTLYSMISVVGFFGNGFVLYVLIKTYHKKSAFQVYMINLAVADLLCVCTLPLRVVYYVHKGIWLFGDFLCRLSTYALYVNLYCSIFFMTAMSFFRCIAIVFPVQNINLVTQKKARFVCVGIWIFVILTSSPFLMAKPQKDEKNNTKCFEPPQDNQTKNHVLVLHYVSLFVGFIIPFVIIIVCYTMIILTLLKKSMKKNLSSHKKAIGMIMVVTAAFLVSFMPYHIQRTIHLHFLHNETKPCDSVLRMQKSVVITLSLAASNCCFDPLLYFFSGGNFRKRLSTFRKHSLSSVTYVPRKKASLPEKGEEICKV
T2 sequence (Q9NS75 whole entry): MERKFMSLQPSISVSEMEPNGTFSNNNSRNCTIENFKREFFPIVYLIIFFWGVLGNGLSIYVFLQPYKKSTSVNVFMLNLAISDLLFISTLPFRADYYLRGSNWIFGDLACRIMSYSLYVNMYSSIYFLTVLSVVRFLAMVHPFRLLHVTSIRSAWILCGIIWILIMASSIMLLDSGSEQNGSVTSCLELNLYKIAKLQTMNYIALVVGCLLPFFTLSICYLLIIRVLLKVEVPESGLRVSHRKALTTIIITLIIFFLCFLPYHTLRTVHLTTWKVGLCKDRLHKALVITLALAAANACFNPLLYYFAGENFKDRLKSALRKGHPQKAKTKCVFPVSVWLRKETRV

Homo sapiens [13] = species: Homo sapiens; experiment: Compound was tested for fold shift in LTD4 dose response curve 2 hour following 100 microg aerosol dose in normal subjects.; type: functional
Homo sapiens [14] = species: Homo sapiens; experiment: Compound was tested for fold shift in LTD4 dose response curve following 800 microg aerosol dose in mild asthmatics.; type: functional
Homo sapiens [15] = species: Homo sapiens; experiment: Compound was tested in vitro inhibitory activity against […] induced Ca mobilization.; type: functional, organism-based
Mus musculus [16] = experiment: Compound was tested in vivo inhibitory activity against LTB4 induced neutrophil cutaneous influx in mouse.; type: functional
Homo sapiens [17] = species: Homo sapiens; experiment: Compound was tested in vitro inhibitory activity against […] induced chemotaxis of human neutrophil; type: functional
Cavia porcellus [18] = experiment: Compound was tested in vivo inhibitory activity against LTB4 induced neutrophil cutaneous influx in guinea pig; type: functional
Homo sapiens [19] = experiment: Shift in LTB-4 dose response curve for CD11b upregulation in normal volunteers; type: functional
Cavia porcellus [20] = experiment: Compound was tested in vivo inhibitory activity to block 12 (R)-HETE skin inflammation (peroral administration) at 3 mg/kg; type: functional; details: route oral
Mus musculus [21] = experiment: Compound was tested for in vivo inhibition against mouse AA ear edema; type: functional
Mus musculus [22] = species: Mus musculus; experiment: Compound was tested for in vitro inhibition against murine macrophage; type: functional
Cavia porcellus [23] = experiment: Compound was tested for in vivo inhibition against gp antigen bronchospasm; type: functional; details: Bronchiole
Homo sapiens [24] = species: Homo sapiens; experiment: Compound was tested for in vitro inhibition against human whole blood; type: functional
Rattus norvegicus [25] = experiment: Compound was tested for in vivo inhibition against rat zymosan-inflamed air pouch; type: functional
Homo sapiens [26] = species: Homo sapiens; experiment: Compound was tested in vitro for inhibitory activity in LTB4 induced Ca mobilization.; type: functional, organism-based
[27] = molecular target: T1, Leukotriene B4 receptor 1; experiment: Compound was tested for binding affinity against human neutrophil LTB4 (leukotriene) receptor
Mus musculus [28] = experiment: Compound was tested in vivo inhibitory activity against AA induced ear edema(orally); type: functional; details: po
Mus musculus [29] = experiment: Compound was tested in vivo inhibitory activity against PMA induced ear edema; type: functional
Mus musculus [30] = experiment: Compound was tested in vivo inhibitory activity against AA induced ear edema (topically); type: functional
Homo sapiens [31] = species: Homo sapiens; experiment: Compound was tested in vitro inhibitory activity against 12-R-HETE induced Ca mobilization; type: functional
Homo sapiens [32] = species: Homo sapiens; experiment: Compound was tested in vitro inhibitory activity against LTB4 induced neutrophil degranulation; type: functional
Homo sapiens [33] = experiment: Compound was tested for fold shift in LTD4 bronchoconstriction dose response curve following a 400 mg oral dose.; type: functional, Lung
Homo sapiens [34] = species: Homo sapiens; experiment: Compound was tested in vitro inhibitory activity against […] induced CD11 up-regulation.; type: functional, organism-based
Homo sapiens [35] = species: Homo sapiens; experiment: Compound was tested in vitro inhibitory activity against […] induced chemotaxis; type: functional, organism-based
[36] = molecular target: T1, Leukotriene B4 receptor 1; experiment: Compound was tested for inhibitory activity against Leukotriene B4 receptor binding
Homo sapiens [37] = species: Homo sapiens; experiment: Compound was tested in vitro inhibitory activity against […] induced aggregation.; type: functional, organism-based
Mus musculus [38] = experiment: Compound was tested in vivo inhibitory activity against AA induced ear edema and MPO release.; type: functional
Mus musculus [39] = experiment: Compound was tested in vivo inhibitory activity against AA induced ear edema and MPO release (orally).; type: functional; details: po
Rattus norvegicus [40] = experiment: Compound was tested in vivo inhibitory activity against rat neutropenia at 4h.; type: functional
Rattus norvegicus [41] = experiment: Compound was tested in vivo inhibitory activity against rat neutropenia at 18 h.; type: functional
Homo sapiens [42] = experiment: Compound was tested in vivo inhibitory activity against CD11b up-regulation at 4 hours in normal volunteers.; type: functional
Homo sapiens [43] = species: Homo sapiens; experiment: Fold shift in LTD4 dose response curve […] after 5 days of 450 mg bid; type: functional
Homo sapiens [44] = experiment: Fold shift in LTD4 dose response curve 24 hr following 450 mg oral dose; type: functional
Homo sapiens [45] = species: Homo sapiens; experiment: Fold shift in LTD4 dose response curve 3-5 hr after 5 days 450 mg bid; type: functional
[46] = Compound was determined in vivo in squirrel monkey antigen bronchospasm; details: Saimiri sciureus, Bronchiole
[47] = Compound was tested for in vivo inhibition against antigen bronchospasm.; type: functional; details: Rattus norvegicus, Bronchiole
Rattus norvegicus [48] = species: Rattus norvegicus; experiment: Compound was tested for in vitro inhibition using FLAP binding assay
RBL-1 [49] = experiment: Compound were tested for in vitro inhibition against broken RBL-1.; type: functional; details: Rattus norvegicus
Homo sapiens [50] = species: Homo sapiens; experiment: Compound were tested for in vitro inhibition against human whole blood.
Cavia porcellus [51] = experiment: Compound was tested in vivo for LTB4 induced bronchoconstriction in guinea pig (2 hr pretreatment).; type: functional
Cavia porcellus [52] = experiment: Compound was tested in vivo inhibitory activity against LTB4 induced bronchoconstriction in guinea pig(orally) (20 hr pretreatment); type: functional; details: po
Oryctolagus cuniculus = experiment: Compound was tested in vivo inhibitory activity against LTB4 induced neutropenia in rabbit (intravenous); type: functional
Cavia porcellus [53] = species: Cavia porcellus; experiment: Compound was tested in vitro for inhibitory activity against guinea pig neutrophil aggregation; type: functional
Homo sapiens [54] = species: Homo sapiens; experiment: Compound was tested in vitro for inhibitory activity against human neutrophil chemotaxis.; type: functional
Homo sapiens [55] = species: Homo sapiens; experiment: Compound was tested in vitro for inhibitory activity against human neutrophil aggregation.; type: functional

T1 sequence (Q15722 whole entry): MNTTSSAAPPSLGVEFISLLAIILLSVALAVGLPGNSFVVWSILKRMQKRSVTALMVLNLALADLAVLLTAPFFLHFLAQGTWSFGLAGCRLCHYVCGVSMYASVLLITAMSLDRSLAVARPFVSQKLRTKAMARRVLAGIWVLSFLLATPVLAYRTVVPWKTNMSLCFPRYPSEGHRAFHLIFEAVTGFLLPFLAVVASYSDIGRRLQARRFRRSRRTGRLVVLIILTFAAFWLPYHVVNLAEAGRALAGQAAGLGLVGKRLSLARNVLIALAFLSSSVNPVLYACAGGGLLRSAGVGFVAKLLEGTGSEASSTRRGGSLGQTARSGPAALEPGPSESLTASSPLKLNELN

## CCCc1c(OCCCOc2cc(O)c(-c3ccc(F)cc3)cc2CC)cccc1Oc1ccccc1C(=O)O [ETALOCIB]
[1]
  Ki: 25 nM
Homo sapiens [2]
  IC50: 3.9 nM
Cavia porcellus [3]
  ED50: 0.4 mg/kg
Homo sapiens [4]
  IC50: 20 nM
Cavia porcellus [5]
  ED50: 0.04 mg/kg

## C[C@H](C#Cc1ccc(Cc2ccc(F)cc2)s1)N(O)C(N)=O [ATRELEUTON]
RBL-1 [6]
  IC50: 23 nM
Homo sapiens [7]
  IC50: 23 nM
[8]
  half-life: 15 h
Homo sapiens [9]
  IC50: 150 nM
Cavia porcellus [10]
  ED50: 4 mg/kg
Rattus norvegicus [11]
  ED50: 0.6 mg/kg

## O=C(O)CCS[C@H](c1ccccc1CCCCCCCCc1ccccc1)[C@@H](O)C(=O)O [POBILUKAST]
[12]
  Ki: 5 nM
Homo sapiens [13]
  Activity: 10
Homo sapiens [14]
  Activity: 3

## O=C(O)C1(c2ccc3c(c2)OC[C@H](Cc2ccc(-c4ccccc4)cc2)[C@H]3O)CCCC1
Homo sapiens [15]
  IC50: 940 nM
Homo sapiens [2]; read-out: pA2 (converted)
  Kb: 10 nM
Mus musculus [16]
  ED50: 4.2 mg/kg
Homo sapiens [17]
  IC50: 5 nM
Cavia porcellus [18]
  ED50: 0.3 mg/kg
Homo sapiens [19]
  Activity: 10
Cavia porcellus [20]
  inhibition in vivo at 3 mg/kg: 75%

## COC1(c2cc(F)cc(OCc3ccc4c(ccc(=O)n4C)c3)c2)CCOCC1 [ZD-2138]
Mus musculus [21]
  ED50: 1.8 mg/kg
Mus musculus [22]
  IC50: 3 nM
Cavia porcellus [23]
  ED50: 0.1 mg/kg
Homo sapiens [24]
  IC50: 20 nM
Rattus norvegicus [25]
  ED50: 0.3 mg/kg

## O=C(O)/C=C/c1nc(CSc2c(Cl)cccc2Cl)ccc1OCCc1ccccc1 [TICOLUBANT]
Homo sapiens [26]
  IC50: 6.6 nM
[27]
  Ki: 0.8 nM
Mus musculus [28]
  ED50: 19 mg/kg
Mus musculus [29]
  ED50: 114 µg
Mus musculus [30]
  ED50: 20 µg
Homo sapiens [31]
  IC50: 1.3 nM
Homo sapiens [32]
  IC50: 117 nM

## CCCc1c(OCCCCc2nnn[nH]2)ccc(C(C)=O)c1O [TOMELUKAST]
Homo sapiens [33]
  Activity: 4.6

## COc1cc(C(=O)N(C(C)C)C(C)C)ccc1OCCCCCOc1ccc(C(=N)N)cc1 [MOXILUBANT]
Homo sapiens [15]
  IC50: 2 nM
Homo sapiens [34]
  IC50: 0.3 nM
Homo sapiens [35]
  IC50: 2.4 nM
[36]
  IC50: 4 nM
Homo sapiens [37]
  IC50: 0.1 nM
Mus musculus [38]
  ED50: 1.4 mg/kg
Mus musculus [39]
  ED50: 1.8 mg/kg
Rattus norvegicus [40]
  ED50: 4 mg/kg
Rattus norvegicus [41]
  ED50: 11 mg/kg
Homo sapiens [42]
  ED100: 300 mg

## O=C(Nc1cccc2c(=O)cc(-c3nnn[nH]3)oc12)c1ccc(OCCCCc2ccccc2)cc1
Homo sapiens [43]
  Activity: 26
Homo sapiens [44]
  Activity: 7
Homo sapiens [45]
  Activity: 28

## CC(C)(C)Sc1c(CC(C)(C)C(=O)[O-])n(Cc2ccc(Cl)cc2)c2ccc(OCc3ccc4ccccc4n3)cc12.[Na+] [QUIFLAPON SODIUM]
[46]
  ED50: 0.3 mg/kg
Phase 1 oral half life
  T1/2: 6 h
[47]
  ED50: 0.16 mg/kg
Rattus norvegicus [48]
  IC50: 1.6 nM
RBL-1 [49]
  IC50: 6 nM
Homo sapiens [50]
  IC50: 510 nM

## CCCc1c(OCCCCCCc2cccc(OCCCCCC(=O)O)c2CCC(=O)O)ccc2c1OCCC2=O
Cavia porcellus [51]
  ED50: < 0.1 mg/kg
Cavia porcellus [52]
  ED50: < 1 mg/kg

## COc1ccc(/C=C/CCCCOc2ccc(C(=O)c3cccc(C(=O)O)c3)cc2CCC(=O)O)cc1
Oryctolagus cuniculus
  ED50: 3 mg/kg
Cavia porcellus [53]
  IC50: 74 nM
Homo sapiens [54]
  IC50: 6 nM
Homo sapiens [55]
  IC50: 100 nM
